Assay results taken from patent US6887896B1, “7-[(7-Alkoxy)-chrom-3-en-6-yl]-heptatrienoic acid and 7-[(3-alkoxy)-5,6-dihydronaphthalen-2-yl]-heptatrienoic acid derivatives having serum glucose reducing activity” (Allergan, Inc., priority 2003, dated 2005).

How the values were obtained:
RXRβ [1] = molecular target: T1, RXRβ (UniProt P28704); assay: holoreceptor transactivation assay, RXRβ; type: cell-based
T1 sequence (P28704 1-520): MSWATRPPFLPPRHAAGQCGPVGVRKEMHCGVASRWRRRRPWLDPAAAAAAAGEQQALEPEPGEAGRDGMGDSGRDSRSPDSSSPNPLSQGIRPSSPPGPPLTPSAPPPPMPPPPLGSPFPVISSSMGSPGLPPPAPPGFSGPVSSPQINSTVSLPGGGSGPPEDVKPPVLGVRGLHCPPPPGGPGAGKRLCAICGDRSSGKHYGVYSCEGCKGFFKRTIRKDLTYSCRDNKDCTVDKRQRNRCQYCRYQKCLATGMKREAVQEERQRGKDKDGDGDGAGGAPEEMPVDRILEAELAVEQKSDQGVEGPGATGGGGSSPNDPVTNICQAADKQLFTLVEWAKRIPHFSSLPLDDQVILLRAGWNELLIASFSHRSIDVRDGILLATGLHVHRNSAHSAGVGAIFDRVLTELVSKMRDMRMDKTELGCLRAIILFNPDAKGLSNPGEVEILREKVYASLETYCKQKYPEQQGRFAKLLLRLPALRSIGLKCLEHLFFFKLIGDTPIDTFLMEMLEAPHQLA
Text: (§1) Specifically, one such assay is a chimeric receptor transactivation assay which tests for agonist-like activity in the R RAPE and RAR7 receptor subtypes, and which is based on work published by Feigner, P. L. and Holm, M (1989) Focus, 112 is described in detail in U.S. Pat. No. 5,455,265. The specification of U.S. Pat. No. 5,455,265 is hereby expressly incorporated by reference. A holoreceptor transactivation assay and a ligand binding assay which measure the antagonist/agonist like activity of the compounds of the invention, or their ability to bind to the several retinoid receptor subtypes, respectively, are described in published PCT Application No. WO WO93/11755 (particularly on pages 30-33 and 37-41) published on Jun. 24, 1993, the specification of which is also incorporated herein by reference. A detailed experimental procedure for holoreceptor transactivations has been described by Heyman et al. Cell 68, 397-406, (1992); Allegretto et al. J. Biol. Chem. 268, 26625-26633, and Mangelsdorf et al. The Retinoids: Biology, Chemistry and Medicine, pp 319-349, Raven Press Ltd., New York, which are expressly incorporated herein by reference. The results obtained in this assay are expressed in EC50 numbers, as they are also in the chimeric receptor transactivation assay. The results of the ligand binding assay are expressed in Ki numbers. (See Cheng et al. Biochemical Pharmacology Vol. 22 pp 3099-3108, expressly incorporated herein by reference.)
(§2) Efficacy in a transactivation assay is expressed as a percentage of the maximum potency attained by the compound compared to a standard which, in this case, is the compound named (2E,4E,1′S,2′S)-3-methyl-5-[2′-methyl-2′-(5,5,8,8-tetramethyl-5,6,7,8-tetrahydro-naphthalen-2-yl)-cyclopropyl]-penta-2,4-dienoic acid. This standard compound is described in U.S. Pat. No. 6,114,533.
(§3) The specification of this application for patent is organized in several sections in accordance with structural Formulas A through F each of which discloses a group of preferred compounds within the scope of the invention. Tables that disclose the activity of certain exemplary compounds of the invention in the above-described RXR receptor transactivation and binding assays are found in the corresponding sections. […] The transactivation data pertaining to the activation of RXR receptors were obtained in the holoreceptor assay.
(§4) Generally speaking, in the tables disclosing the results of transactivation and binding assays the numbers in parentheses indicate efficacy as a percentage compared to the standard compound, (2E,4E,1′S,2′S)-3-methyl-5-[2′-methyl-2′-(5,5,8,8-tetramethyl-5,6,7,8-tetrahydro-naphthalen-2-yl)cyclopropyl]-penta-2,4-dienoic acid and the other numbers indicate the measured EC50 and K; in nanomolar concentration.

RARα = molecular target: T2, RARα (Homo sapiens, UniProt P10276); assay: ligand binding assay, RARα; settings: for Ki: read-out: RAR Bind. Ki α; for Kd: Table 9 (Formula F), read-out: RAR α Kd
T2 sequence (P10276 1-462): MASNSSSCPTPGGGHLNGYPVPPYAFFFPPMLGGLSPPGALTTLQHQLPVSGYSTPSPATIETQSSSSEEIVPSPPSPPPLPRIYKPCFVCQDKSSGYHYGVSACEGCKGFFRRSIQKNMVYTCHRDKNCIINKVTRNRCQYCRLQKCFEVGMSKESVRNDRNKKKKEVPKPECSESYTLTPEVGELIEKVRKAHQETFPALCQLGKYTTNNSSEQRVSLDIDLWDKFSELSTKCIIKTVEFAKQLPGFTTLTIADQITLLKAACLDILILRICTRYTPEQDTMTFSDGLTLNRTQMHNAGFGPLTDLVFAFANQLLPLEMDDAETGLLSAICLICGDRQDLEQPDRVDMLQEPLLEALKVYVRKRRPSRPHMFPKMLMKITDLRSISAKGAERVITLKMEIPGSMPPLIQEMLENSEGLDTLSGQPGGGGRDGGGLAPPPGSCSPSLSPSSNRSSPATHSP
Text: as §1, §4

RARβ = molecular target: T3, RARβ (Homo sapiens, UniProt P10826); assay: ligand binding assay, RARβ; settings: for Ki: read-out: RAR Bind. Ki β; for Kd: Table 9 (Formula F), read-out: RAR β Kd
T3 sequence (P10826 1-455): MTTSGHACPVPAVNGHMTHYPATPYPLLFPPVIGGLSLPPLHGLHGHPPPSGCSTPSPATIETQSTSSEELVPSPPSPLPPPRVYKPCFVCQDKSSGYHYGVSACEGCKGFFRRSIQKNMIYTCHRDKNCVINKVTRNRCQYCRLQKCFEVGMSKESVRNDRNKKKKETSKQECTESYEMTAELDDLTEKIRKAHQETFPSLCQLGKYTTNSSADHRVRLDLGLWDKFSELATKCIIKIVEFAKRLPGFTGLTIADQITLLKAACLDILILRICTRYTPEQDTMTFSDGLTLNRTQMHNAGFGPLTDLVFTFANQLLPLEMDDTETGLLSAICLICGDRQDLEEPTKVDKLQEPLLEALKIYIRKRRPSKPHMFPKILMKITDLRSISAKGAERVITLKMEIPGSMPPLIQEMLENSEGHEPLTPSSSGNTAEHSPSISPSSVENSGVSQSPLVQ
Text: as §1, §4

RXRα [2] = molecular target: T4, RXRα (Homo sapiens, UniProt P19793); assay: ligand binding assay, RXRα; settings: for Ki: read-out: RXR Bind Ki α; for Kd: Table 9 (Formula F), read-out: RXR α Kd
T4 construct: expressed in transfected cells
T4 sequence (P19793 1-462): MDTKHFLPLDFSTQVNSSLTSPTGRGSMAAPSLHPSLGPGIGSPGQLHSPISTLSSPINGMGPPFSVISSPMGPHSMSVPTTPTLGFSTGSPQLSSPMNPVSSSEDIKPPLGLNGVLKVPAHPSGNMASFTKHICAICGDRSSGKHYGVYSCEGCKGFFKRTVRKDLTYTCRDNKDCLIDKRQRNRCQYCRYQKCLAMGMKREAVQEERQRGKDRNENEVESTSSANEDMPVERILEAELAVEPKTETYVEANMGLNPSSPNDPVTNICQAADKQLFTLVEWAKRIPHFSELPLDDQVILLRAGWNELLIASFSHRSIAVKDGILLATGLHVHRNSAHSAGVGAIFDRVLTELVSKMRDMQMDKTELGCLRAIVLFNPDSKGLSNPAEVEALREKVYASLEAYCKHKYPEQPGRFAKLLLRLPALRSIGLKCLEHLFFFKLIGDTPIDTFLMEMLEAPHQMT
Text: as §1, §4

RXRβ [3] = molecular target: T1, RXRβ; assay: ligand binding assay, RXRβ; settings: for Ki: read-out: RXR Bind Ki β; for Kd: Table 9 (Formula F), read-out: RXR β Kd
Text: as §1, §4

RARγ = molecular target: T5, RARγ (Homo sapiens, UniProt P13631); assay: ligand binding assay, RARγ; settings: for Ki: read-out: RAR Bind. Ki γ; for Kd: Table 9 (Formula F), read-out: RAR γ Kd
T5 sequence (P13631 1-454): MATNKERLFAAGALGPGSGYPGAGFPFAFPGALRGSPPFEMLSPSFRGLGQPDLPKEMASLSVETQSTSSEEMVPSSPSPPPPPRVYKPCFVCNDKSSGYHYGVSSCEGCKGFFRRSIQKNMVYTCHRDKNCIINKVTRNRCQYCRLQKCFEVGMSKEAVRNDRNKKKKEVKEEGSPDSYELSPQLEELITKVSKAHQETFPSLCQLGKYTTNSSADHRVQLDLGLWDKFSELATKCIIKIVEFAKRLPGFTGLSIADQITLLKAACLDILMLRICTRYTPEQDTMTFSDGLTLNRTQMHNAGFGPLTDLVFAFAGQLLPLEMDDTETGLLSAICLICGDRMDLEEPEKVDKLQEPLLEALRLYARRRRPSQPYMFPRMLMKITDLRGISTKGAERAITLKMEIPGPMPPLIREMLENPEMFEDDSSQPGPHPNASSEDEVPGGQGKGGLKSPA
Text: as §1, §4

RXRα [4] = molecular target: T4, RXRα; assay: holoreceptor transactivation assay, RXRα; type: cell-based
Text: as §1, §2, §3, §4

ob/ob mice [5] = assay: serum glucose, triglycerides and T4 in ob/ob mice, drug mixed in control diet over 7 days; type: in vivo; settings: 2.5 mg/kg per day in diet
ob/ob mice [6] = assay: serum glucose, triglycerides and T4 in diabetic mice, oral gavage in corn oil daily for seven days; type: in vivo; settings: for Glucose Day 0 / Triglycerides Day 0: day 0 (pre-treatment)
[7] = 4 mg/kg, corn oil vehicle (second Table 9)
[8] = 5 mg/kg, corn oil vehicle (Table 7)

CCOc1cc2c(cc1\C(C)=C/C=C/C(C)=C/C(=O)O)C(C(C)C)=CC(C)(C)O2 [Compound 47, 7-(7-Ethoxy-4-isopropyl-2,2-dimethyl-2H-chromen-6-yl)-3-methyl-octa-2E,4E,6Z-trienoic acid]
EC50 (RXRβ [1]; holoreceptor transactivation, read-out: RXR Trans. EC50 β): 288 nM
RXR Trans. efficacy (number in parentheses) β (RXRβ [1]; percentage compared to the standard compound): 6%
Ki (RARα): > 10000 nM
Ki (RARβ): 3900 nM
Ki (RXRα [2]): 15 nM
Ki (RXRβ [3]): 150 nM

CCOc1cc2c(cc1\C(C)=C(F)/C=C/C(C)=C/C(=O)O)C(C(C)C)=CC(C)(C)O2 [Compound 124, (2E,4E,6E)-7-(7-Ethoxy-4-isopropyl-2,2-dimethyl-2H-Chromen-6-yl)-6-fluoro-3-methyl-octa-2.46-trienoic acid]
Ki (RARα): 523 nM
Ki (RARβ): 1000 nM
Ki (RARγ): 3300 nM
Ki (RXRα [2]): 6 nM
Ki (RXRβ [3]): 42 nM

CCCOc1cc2c(cc1\C(C)=C(F)/C=C/C(C)=C/C(=O)O)C(C(C)C)=CC(C)(C)O2 [Compound 125, (2E,4E,6E) 6-Fluoro-7-(4-isopropyl-2,2-dimethyl-7-propoxy-2H-chromen-6-yl)-3-methyl-octa-2,4,6-trienoic acid]
Ki (RARα): 12 nM
Ki (RARβ): 3 nM
Ki (RARγ): 43 nM
Ki (RXRα [2]): 8 nM
Ki (RXRβ [3]): 73 nM

CCCCOc1cc2c(cc1\C(C)=C(F)/C=C/C(C)=C/C(=O)O)C(C(C)C)=CC(C)(C)O2 [Compound 126, (2E,4E,6E)-7-(7-Butoxy-4-isopropyl-2,2-dimethyl-2H-chromen-6-yl)-6-fluoro-3-methyl-octa-2,4,6-trienoic acid]
Ki (RARα): 860 nM
Ki (RARβ): 522 nM
Ki (RARγ): 3000 nM
Ki (RXRα [2]): 8 nM
Ki (RXRβ [3]): 59 nM

CCCOc1c(\C(C)=C(F)/C=C/C(C)=C/C(=O)O)cc2c(c1Br)C(C)(C)CC=C2C(C)C [Compound A-173, (2E,4E,6E)-7-(4-Bromo-8-isopropyl-5,5-dimethyl-3-propoxy-5,6-dihydro-nahthalen-2-yl)-6-fluoro-3-methyl-octa-2,4,6-trienoic acid]
EC50 (RXRα [4]; holoreceptor transactivation, read-out: RXR Trans. EC50 α): 1 nM
Emax (RXRα [4]; percentage compared to the standard compound, read-out: RXR Trans. efficacy (number in parentheses) α): 5%
Kd (RARα): 91 nM
Kd (RARβ): 192 nM
Kd (RARγ): 810 nM
Kd (RXRα [2]): 2 nM
Kd (RXRβ [3]): 11 nM

CC(/C=C/C(F)=C(/C)c1cc2c(c(Br)c1OC(C)C)C(C)(C)CC=C2C(C)(C)C)=C\C(=O)O [Compound A-175, (2E,4E,6E)-7-(4 Bromo-8-tert-butyl-3-isopropoxy-5,5-dimethyl-5,6 dihydro-naphthalen-2-yl)-6-fluoro-3-methyl-octa-2,4,6-trienoic acid]
Kd (RARα): 458 nM
Kd (RARβ): 280 nM
Kd (RARγ): 866 nM
Kd (RXRα [2]): 9 nM
Kd (RXRβ [3]): 31 nM

CC(/C=C/[C@@H]1C[C@]1(C)c1ccc2c(c1)C(C)(C)CCC2(C)C)=C\C(=O)O [Standard compound, (2E,4E,1′S,2′S)-3-methyl-5-[2′-methyl-2′-(5,5,8,8-tetramethyl-5,6,7,8-tetrahydro-naphthalen-2-yl)-cyclopropyl]-penta-2,4-dienoic acid]
Glucose Day 3, 3 h (ob/ob mice [5]): 107 mg/dL
Glucose Day 6, 3 h (ob/ob mice [5]): 136 mg/dL
T4 Day 7 (ob/ob mice [5]): 0.8 µg/dL
Triglycerides Day 3, 3 h (ob/ob mice [5]): 55 ± 23 mg/dL
Glucose Day 0 (ob/ob mice [5]; day 0 (pre-treatment)): 246 mg/dL
Triglycerides Day 0 (ob/ob mice [5]; day 0 (pre-treatment)): 92 ± 41 mg/dL
Glucose Day 3, 3 h (ob/ob mice [6]; [7]): 312 mg/dL
Glucose Day 6, 3 h (ob/ob mice [6]; [7]): 291 mg/dL
T4 Day 7 (ob/ob mice [6]; [7]): 0.5 µg/dL
Triglycerides Day 3, 3 h (ob/ob mice [6]; [7]): 309 mg/dL
Glucose Day 0 (ob/ob mice [6]; [7]): 544 mg/dL
Triglycerides Day 0 (ob/ob mice [6]; [7]): 261 mg/dL
Glucose Day 3, 3 h (ob/ob mice [6]; [8]): 301 mg/dL
Glucose Day 6, 3 h (ob/ob mice [6]; [8]): 218 mg/dL
T4 Day 7 (ob/ob mice [6]; [8]): 2.7 µg/dL
Triglycerides Day 3, 3 h (ob/ob mice [6]; [8]): 147 mg/dL
Glucose Day 0 (ob/ob mice [6]; [8]): 389 mg/dL
Triglycerides Day 0 (ob/ob mice [6]; [8]): 149 mg/dL
serum thyroxine levels (in words) (ob/ob mice [6]; diabetic mammals): undesirable side effect of reducing serum thyroxine levels
